We go through 3 compounds from patent US12048713B2, “Pharmaceutical composition for reducing protein bound uremic toxins” (Frimline Private Limited, priority 2020, dated 2024).

The assay deals with 5/6 Nephrectomy induced chronic kidney disease (CKD) in rat. Briefly: 5/6 Nephrectomy induced chronic kidney disease in rat: IS and PCS blood level, mortality. It is filed as in vivo, Wistar rats (Rattus norvegicus). Particulars: for IS Mean: Indoxyl Sulphate blood level, disease control 7.33; for IS Mean / PCS Mean: p.o. daily for 13 weeks; for PCS Mean: P-Cresyl Sulphate blood level, disease control 1.13; for IS % Decreased: decrease in Indoxyl Sulphate blood level compared to disease control; for IS % Decreased / PCS % Decreased: p.o. daily 13 weeks; for PCS % Decreased: decrease in P-Cresyl Sulphate blood level compared to disease control. As to the method:
The effect of the compositions of the present invention and other test and reference compositions was studied in animals. For this study, screening effect of synergistic combination or composition/formulation comprising Inulin and other active ingredients against 5/6 Nephrectomy induced chronic kidney disease (CKD) in rat was performed. The following trials were carried out:
Eighty Four (84) female rats (Wistar rats (Rattus norvegicus)) divided into 14 groups (6 per group) were maintained in animal house in a light/dark atmosphere based on a 12 hour cycle having temperature and relative humidity in the range of 19 to 25±2° C. and 30-70%, respectively. To maintain the appropriate conditions, temperature and relative humidity were recorded three times daily. All animals were acclimatized for a minimum period of five days. Animals were maintained in the test setup for minimum 30 minutes once during the acclimatization period to reduce the stress. Animals were weighed on the day of receipt and observed daily for abnormalities if any. Detailed records of acclimatization were also maintained. Rats were housed 3 per cage in clean, sterilized Polypropylene cages. During complete experiment, animals were supplied with the standard certified rat pellet feed and drinking water treated by the reverse osmosis ad libitum.
In order to evaluate the activity against chronic kidney disease, eighty four (84) rats were screened and divided into Fourteen (14) groups. For a comparative analysis, groups were divided as normal control (Group 1 (G1)), sham Control (Group 2 (G2)), disease control (Group 3 (G3)), treatment groups with individual components (Group 4 (G4), Group 5 (G5) and Group 6 (G6) as Inulin, Betaine and Resistant Starch respectively), test composition (Group 7 (G7) to Group 11 (G11) (Combination of Inulin with Betaine at different dose level), test composition Group 12 (G12) to Group 13 (G13) (Combination of Inulin, Betaine and Resistant Starch) and reference standard (Group 14 (G14)) (Activated Charcoal). Table 1 provides the details of the various groups and treatments conducted in the trial wherein G4 to G14 are treatment groups. Experiment was carried out for 3 months in two stages.
The animals under consideration were examined for a study period of 13 weeks and two-stage surgical procedure for kidney ligation and removal were performed.
Stage one: A ventral midline incision into the abdomen was made to expose the animal's left kidney and the organ was freed from the surrounding tissue. A piece of suture was placed and ligated around each pole of the kidney at its one-third position. The one-third kidney on each pole was excised beyond the ligatures and the abdominal incision was closed.
Stage two: This procedure was performed 7 days after stage one. The animals were placed in ventral recumbency and an incision was made parallel to the midline. The abdominal cavity was entered, and the right kidney was made free from the surrounding tissue. The kidney was gently pulled out from the incision and the adrenal gland was freed and replaced into the abdominal cavity. The renal blood vessels and the ureter were ligated or cauterized. The kidney was then removed by transecting the vessels and ureter just distal to the ligature or cauterized section. The skin incision was closed with wound clips.
Treatment: All treatment groups were treated on daily basis for 13 weeks after stage two of surgery. Blood collection and biochemistry analysis were done after completion of the treatment of all treated groups at the end of 13th week treatment.

In the case of Resistant Starch [RS], the “IS Mean” value was found to be 6.5 mg/L, the “PCS Mean” value was determined as 1.01 mg/L, the “IS % Decreased” value is reported as 11.33% and the “PCS % Decreased” value is 10.62%.
`C[N+](C)(C)CC(=O)O` [Betaine]: the “IS Mean” value is recorded as 7.01 mg/L, the “PCS Mean” value was 1.09 mg/L, the “IS % Decreased” value worked out at 4.37% and the “PCS % Decreased” value worked out at 3.54%.
In the same order, the values of Inulin are 5.55 mg/L, 0.84 mg/L, 24.29% and 25.66%.
